Patent US11559525B2, “Therapeutic drug for dyskinesia” (Sumitomo Pharma Co., Ltd., priority 2019, dated 2023)
Marks after values point to notes of the source that are not given here.

How the values were obtained:
[1] = Plasma tandospirone concentration measured after observation and evaluation of behavior in PD-LID rats; format: in vivo, rat; settings: rat, plasma
Method: 50 μL of rat plasma sample was fractionated into a polypropylene microtube. 50 μL of methanol (50 μL of standard solution for calibration curve sample) and 200 μL of internal standard solution (Bezafibrate methanol solution: 200 nmol/L, 200 μL of methanol for blank sample) are added and stirred for about 10 seconds with a mixer. This is centrifuged (4° C., 4500 rpm, 10 min), and then the supernatant is subjected to vacuum filtration using a filter (FastRemover MF 0.2 μm). 70 μL of aqueous 10 mmol/L ammonium acetate solution is added to 70 μL of the resulting filtrate and stirred for about 10 seconds with a mixer to prepare a measurement sample.
When evaluating a tape agent, the hair on the abdominal region of rats was shaved before the evaluation date. The tape agent of formulation 2 was applied to the abdominal regions of rats on the evaluation date at 60 cm^2/kg (37 mg/kg). After 4 hours from application, a levodopa containing solution was intraperitoneally administered to observe and evaluate the behavior. Individuals with 50% or more of the tape agent coming off during the test were excluded from analysis.
(§1) After 4 hours from application, a levodopa containing solution was intraperitoneally administered to observe and evaluate the behavior. Individuals with 50% or more of the tape agent coming off during the test were excluded from analysis.
After 4 hours, a levodopa containing solution was administered to observe and evaluate the behavior.
After 4 hours, a levodopa containing solution was administered to observe and evaluate the behavior (day 0 of implanting the pump). Repeat administration of once daily levodopa containing solution was continued thereafter. The behavior was also observed and evaluated on day 13 of implanting the pump.

[2] = test system: PD-LID rat model (6-OHDA-lesioned rats); assay: Dyskinesia-like symptoms (AIMs score) after transdermal tandospirone tape agent in PD-LID rat model; format: in vivo
From the text: A rat striatum dopaminergic denervation model using topical administration of 6-hydroxydopamine (hereinafter, also referred to as “6-OHDA”) to one side of the brain is known as a typical experimental model for PD-LID (rats treated on one side with 6-OHDA (6-OHDA-lesioned rats)). Dyskinesia-like abnormal involuntary movements (AIMs) manifest in said model with repeated administration of levodopa (Lundblad et al., European Journal of Neuroscience, 2002, 15: 120-132, Winkler et al., Neurobiology of Disease, 2002, 10: 165-186).
Wistar male rats (12-week old, Japan SLC, Inc.) were used for the preparation of animal models. Desipramine hydrochloride (25 mg/kg; Wako Pure Chemical) was intraperitoneally administered. After 30 minutes from the administration, the rats were subjected to isoflurane inhalational anesthetic using a general anesthesia apparatus for experimental animals. Under isoflurane anesthesia, the rats were immobilized to a brain stereotaxic instrument. The skin on the head was incised with a surgical scalpel to expose the skull. The coordinates of the bregma used as the origin (AP: 0, ML: 0, DV: 0) was determined, and the coordinates of the right medial forebrain bundle (AP: −4.4 mm, ML: 1.5 mm, DV: 7.8 mm from bregma) were measured. After inserting an injection tube for administration at the measured coordinates, 6-OHDA (9 μg/4 μL; Sigma-Aldrich) inducing dopaminergic denervation was topically injected. After 2 weeks from surgery, apomorphine hydrochloride hemihydrate (0.5 mg/kg; Wako Pure Chemical) was subcutaneously administered, and the rotation movement to the opposite side from the 6-OHDA injected site was observed. Rats with 7 rotations or more per minute were used as rats treated on one side with 6-OHDA.
To make a PD-LID model, a mixture of levodopa methyl ester hydrochloride (6 mg/kg; Sigma-Aldrich) dissolved in saline and benserazide hydrochloride (15 mg/kg; Sigma-Aldrich) (hereinafter, also referred to as “levodopa containing solution”) was intraperitoneally administered once daily to 6-OHDA-lesioned rats. The levodopa containing solution was repeated administered for 3 weeks or longer to observe and evaluate the behavior. The behavior was observed and evaluated in a transparent acrylic cage for 1 minute every 20 minutes after 20 minutes from the intraperitoneal administration of the levodopa containing solution, up until after 3 hours from administration. […] The sum of the scores for Limb AIMs, Axial AIMs, and Orolingual AIMs in 3 hours was used as the total AIMs score. Individuals with a total AIMs score of less than 10 were excluded from the test as not manifesting a dyskinesia-like symptom. […] The rats were assigned to each dosing group by using the 3 hour AIMs score, Locomotive behavior score, and rat body weight as indicators, which were used for evaluation of drugs.
When evaluating a tape agent, the hair on the abdominal region of rats was shaved before the evaluation date. […] After 4 hours from application, a levodopa containing solution was intraperitoneally administered to observe and evaluate the behavior. Individuals with 50% or more of the tape agent coming off during the test were excluded from analysis.
as §1
When evaluating dyskinesia-like symptoms, the sum of the Limb AIMs, Axial AIMs, and Orolingual AIMs at each evaluation point was used as the AIMs score.

[3] = transdermal condition 1, 37 mg/kg, no stripping
[4] = transdermal condition 2, 45 mg/kg, with stripping

Work on `O=C1[C@@H]2[C@H]3CC[C@H](C3)[C@@H]2C(=O)N1CCCCN1CCN(c2ncccn2)CC1` [tandospirone, (1R,2S,3R,4S)—N-[4-{4-(pyrimidine-2-yl)piperadine-1-yl}butyl]-2,3-bicyclo[2.2.1]heptanedicarboximide] yielded a concentration at 7 h ([1]; continuous subcutaneous infusion 0.05 mg/kg/hour) of 23.5 ng/mL, a concentration at 7 h ([1]; continuous subcutaneous infusion 0.25 mg/kg/hour) of 119 ng/mL and a concentration at 7 h ([1]; continuous subcutaneous infusion 1.25 mg/kg/hour) of 541 ng/mL. The “difference (decrease) in total AIMs score in 3 hours, placebo tape agent minus tandospirone” value ([2]; transdermal condition 1 (no stripping), 37 mg/kg) was 17.7**, the “(ii) Indicator of rebound symptom of dyskinesia, in words” value [2, 3] was “No effect” and the “(ii) Indicator of rebound symptom of dyskinesia: difference in total AIMs score in 100 to 180 minutes (placebo minus tandospirone)” value [2, 3] was −0.1. The “difference (decrease) in total AIMs score in 3 hours, placebo tape agent minus tandospirone” value ([2]; transdermal condition 2 (with stripping), 45 mg/kg) was 27.1**, the “(ii) Indicator of rebound symptom of dyskinesia, in words” value [2, 4] was “No effect” and the “(ii) Indicator of rebound symptom of dyskinesia: difference in total AIMs score in 100 to 180 minutes (placebo minus tandospirone)” value [2, 4] was 0.9.
